Columns and labels:
[1] = molecular target: T1, Peroxisome proliferator-activated receptor alpha (Homo sapiens, UniProt Q07869)
T1 sequence (Q07869 whole entry): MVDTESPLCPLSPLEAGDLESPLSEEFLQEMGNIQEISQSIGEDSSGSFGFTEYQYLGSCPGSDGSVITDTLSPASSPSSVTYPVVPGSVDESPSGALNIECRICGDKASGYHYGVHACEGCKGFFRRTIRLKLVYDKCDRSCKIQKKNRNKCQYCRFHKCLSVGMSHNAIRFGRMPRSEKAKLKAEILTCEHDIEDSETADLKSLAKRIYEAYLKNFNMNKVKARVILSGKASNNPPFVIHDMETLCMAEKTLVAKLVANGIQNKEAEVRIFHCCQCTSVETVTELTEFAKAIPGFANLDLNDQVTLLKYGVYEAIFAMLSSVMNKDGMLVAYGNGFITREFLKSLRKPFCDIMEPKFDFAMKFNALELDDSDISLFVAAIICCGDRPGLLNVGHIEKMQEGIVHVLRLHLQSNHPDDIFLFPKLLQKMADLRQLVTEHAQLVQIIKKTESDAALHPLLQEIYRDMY
Description: Agonist activity at human PPARalpha in CV1 cells by GAL4 transactivation assay after 24 hrs

[2] = molecular target: T2, Peroxisome proliferator-activated receptor gamma (Homo sapiens, UniProt P37231)
T2 sequence (P37231 whole entry): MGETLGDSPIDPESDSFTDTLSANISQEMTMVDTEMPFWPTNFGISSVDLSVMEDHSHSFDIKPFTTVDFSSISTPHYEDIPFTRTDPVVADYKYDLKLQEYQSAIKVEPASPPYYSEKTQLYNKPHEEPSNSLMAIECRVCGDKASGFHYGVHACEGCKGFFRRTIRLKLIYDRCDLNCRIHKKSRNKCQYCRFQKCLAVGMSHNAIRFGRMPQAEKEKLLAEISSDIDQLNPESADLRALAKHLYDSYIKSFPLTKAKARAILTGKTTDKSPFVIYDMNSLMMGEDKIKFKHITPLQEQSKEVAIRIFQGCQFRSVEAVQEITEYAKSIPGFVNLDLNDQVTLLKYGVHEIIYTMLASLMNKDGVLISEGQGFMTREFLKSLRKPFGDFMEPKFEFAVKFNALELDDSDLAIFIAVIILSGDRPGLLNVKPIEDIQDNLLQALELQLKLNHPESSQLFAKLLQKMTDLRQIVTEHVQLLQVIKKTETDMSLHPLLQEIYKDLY
Description: Agonist activity at human PPARgamma in CV1 cells by GAL4 transactivation assay after 24 hrs

Compound | EC50 [1] [nM] | EC50 [2] [nM]
CCO[C@@H](Cc1ccc(CCC(OC(=S)NCCc2ccccc2)c2ccccc2)cc1)C(=O)O (some centres undefined) | 880 | 490
CCO[C@H](Cc1ccc(CCC(OC(=S)NCCc2ccccc2)c2ccccc2)cc1)C(=O)O (some centres undefined) | 2770 | 1050
CCO[C@H](Cc1ccc(CCC(OC(=S)NCc2ccc(C(C)(C)C)cc2)c2ccccc2)cc1)C(=O)O (some centres undefined) | 380 | 140
CCO[C@H](Cc1ccc(CCC(OC(=S)NCc2ccccc2)c2ccccc2)cc1)C(=O)O (some centres undefined) |  | 350
CCO[C@@H](Cc1ccc(CCC(O)c2ccccc2)cc1)C(=O)O (some centres undefined) | 1510 | 300
CCO[C@@H](Cc1ccc(CCC(OC(=S)NCc2ccc(C(C)(C)C)cc2)c2ccccc2)cc1)C(=O)O (some centres undefined) | 3270 | 160
CCCNC(=S)OC(CCc1ccc(C[C@H](OCC)C(=O)O)cc1)c1ccccc1 (some centres undefined) | 3940 | 3480
Cc1ccc(C)c(OCCCC(C)(C)C(=O)O)c1 [GEMFIBROZIL] | 193000 | 

Further lines, results first:

EC50 [1] [nM] | EC50 [2] [nM] | Compound
1470 | 1400 | CCO[C@@H](Cc1ccc(CCCOC(=S)NCc2ccccc2)cc1)C(=O)O
6210 | 7170 | CCO[C@@H](Cc1ccc(OCC(OC(=S)NCc2ccccc2)c2ccccc2)cc1)C(=O)O (some centres undefined)
20400 | 5390 | CCNC(=S)OC(CCc1ccc(C[C@H](OCC)C(=O)O)cc1)c1ccccc1 (some centres undefined)
 | 580 | CCO[C@@H](Cc1ccc(CCC(OC(=S)NCc2ccccc2)c2ccccc2)cc1)C(=O)O (some centres undefined)
7260 | 3600 | CCCCNC(=S)OC(CCc1ccc(C[C@H](OCC)C(=O)O)cc1)c1ccccc1 (some centres undefined)
10700 | 1060 | CCO[C@@H](Cc1ccc(CCC(OC(=S)NCC2CCCCC2)c2ccccc2)cc1)C(=O)O (some centres undefined)
6050 | 1420 | CCO[C@@H](Cc1ccc(CCC(OC(=O)NCc2ccccc2)c2ccccc2)cc1)C(=O)O (some centres undefined)
5250 | 4580 | CCO[C@@H](Cc1ccc(CCC(OC(=S)Nc2ccccc2)c2ccccc2)cc1)C(=O)O (some centres undefined)

Source: ChEMBL document CHEMBL1148890, “Design, synthesis, and structure-activity relationship of carbamate-tethered aryl propanoic acids as novel PPARalpha/gamma dual agonists” (Bioorg Med Chem Lett, 2007)
